For one experiment, the target named is T1, human P2X2/3 receptor (Homo sapiens, UniProt P56373+Q9UBL9).
T1 construct: expressed in transfected cells; host or cells: CHO-K1
T1 sequence (Q9UBL9 1-471): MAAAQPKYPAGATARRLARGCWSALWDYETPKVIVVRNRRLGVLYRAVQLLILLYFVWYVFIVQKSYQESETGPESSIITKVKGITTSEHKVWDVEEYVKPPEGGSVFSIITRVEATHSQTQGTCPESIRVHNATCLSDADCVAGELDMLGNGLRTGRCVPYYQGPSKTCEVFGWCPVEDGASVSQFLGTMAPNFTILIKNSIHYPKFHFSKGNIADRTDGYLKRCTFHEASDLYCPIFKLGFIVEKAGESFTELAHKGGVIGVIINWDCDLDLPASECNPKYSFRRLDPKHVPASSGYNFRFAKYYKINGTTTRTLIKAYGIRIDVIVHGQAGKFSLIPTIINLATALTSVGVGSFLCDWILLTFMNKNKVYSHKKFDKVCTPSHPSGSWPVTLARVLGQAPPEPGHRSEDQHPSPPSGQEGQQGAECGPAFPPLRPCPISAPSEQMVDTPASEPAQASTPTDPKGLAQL
T1 sequence (P56373 1-397): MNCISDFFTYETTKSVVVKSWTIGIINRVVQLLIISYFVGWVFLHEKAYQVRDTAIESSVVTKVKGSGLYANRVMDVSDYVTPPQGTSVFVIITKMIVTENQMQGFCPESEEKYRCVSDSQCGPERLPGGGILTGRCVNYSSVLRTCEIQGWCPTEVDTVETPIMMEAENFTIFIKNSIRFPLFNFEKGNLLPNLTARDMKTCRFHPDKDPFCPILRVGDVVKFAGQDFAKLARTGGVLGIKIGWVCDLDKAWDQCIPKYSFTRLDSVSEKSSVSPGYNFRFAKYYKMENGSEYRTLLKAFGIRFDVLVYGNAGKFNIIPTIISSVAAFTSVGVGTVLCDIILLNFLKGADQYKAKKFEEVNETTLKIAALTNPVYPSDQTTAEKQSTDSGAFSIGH
In words: P2X3/P2X2/3 FLIPR (Fluorometric Imaging Plate Reader) Assay, P2X2/3. In kind it is cell-based. Particulars: CHO-K1 cells transfected with human P2X2/3; agonist α,β-meATP 5 μM; Table 1; read-out: P2X2/3 pKi (converted). Here is the method:
(§1) P2X3/P2X2/3 FLIPR (Fluorometric Imaging Plate Reader) Assay
(§2) CHO-K1 cells were transfected with cloned rat P2X3 or human P2X2/3 receptor subunits and passaged in flasks. 18-24 hours before the FLIPR experiment, cells were released from their flasks, centrifuged, and resuspended in nutrient medium at 2.5×10^5 cells/ml. The cells were aliquoted into black-walled 96-well plates at a density of 50,000 cells/well and incubated overnight in 5% CO2 at 37° C. On the day of the experiment, cells were washed in FLIPR buffer (calcium- and magnesium-free Hank's balanced salt solution, 10 mM HEPES, 2 mM CaCl2, 2.5 mM probenecid; FB). Each well received 100 μl FB and 100 μl of the fluorescent dye Fluo-3 AM [2 μM final conc.]. After a 1 hour dye loading incubation at 37° C., the cells were washed 4 times with FB, and a final 75 μl/well FB was left in each well.
(§3) Test compounds (dissolved in DMSO at 10 mM and serially diluted with FB) or vehicle were added to each well (25 μl of a 4× solution) and allowed to equilibrate for 20 minutes at room temperature. The plates were then placed in the FLIPR and a baseline fluorescence measurement (excitation at 488 nm and emission at 510-570 nm) was obtained for 10 seconds before a 100 μl/well agonist or vehicle addition. The agonist was a 2× solution of α,β-meATP producing a final concentration of 1 μM (P2X3) or 5 μM (P2X2/3). Fluorescence was measured for an additional 2 minutes at 1 second intervals after agonist addition. A final addition of ionomycin (5 μM, final concentration) was made to each well of the FLIPR test plate to establish cell viability and maximum fluorescence of dye-bound cytosolic calcium. Peak fluorescence in response to the addition of α,β-meATP (in the absence and presence of test compounds) was measured and inhibition curves generated using nonlinear regression. PPADS, a standard P2X antagonist, was used as a positive control.

A further experiment addresses T2, rat P2X3 receptor (Rattus norvegicus, UniProt P49654).
T2 construct: expressed in transfected cells; host or cells: CHO-K1
T2 sequence (P49654 1-397): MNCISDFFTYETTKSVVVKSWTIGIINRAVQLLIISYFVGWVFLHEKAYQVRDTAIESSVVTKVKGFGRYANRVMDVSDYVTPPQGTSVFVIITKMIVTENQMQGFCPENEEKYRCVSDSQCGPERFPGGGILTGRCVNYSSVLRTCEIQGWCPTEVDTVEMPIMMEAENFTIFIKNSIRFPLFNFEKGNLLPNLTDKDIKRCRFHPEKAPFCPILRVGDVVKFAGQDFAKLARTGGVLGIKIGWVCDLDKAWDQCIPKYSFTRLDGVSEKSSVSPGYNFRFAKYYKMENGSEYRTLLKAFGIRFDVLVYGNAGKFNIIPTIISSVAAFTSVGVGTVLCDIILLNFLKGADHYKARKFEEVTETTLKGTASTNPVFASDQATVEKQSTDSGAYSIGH
In words: P2X3/P2X2/3 FLIPR (Fluorometric Imaging Plate Reader) Assay, P2X3. Format: cell-based. To be noted: CHO-K1 cells transfected with rat P2X3; agonist α,β-meATP 1 μM; Table 1; read-out: P2X3 pKi (converted). As for the experimental part: as §1, §2, §3

Molecules are shown by their SMILES.

Take `CCCc1ncnn1-c1cc(C(=O)N[C@@H](C)CO)cc(-c2ccc(C)cn2)c1` [Compound 114, N-((S)-2-Hydroxy-1-methyl-ethyl)-3-(5-methyl-pyridin-2-yl)-5-(5-propyl-[1,2,4]triazol-1-yl)-benzamide]: the Ki at human P2X2/3 receptor was 2880 nM; on rat P2X3 receptor, 4.79 nM.
Take `CC(NC(=O)c1cc(-c2ccc(Cl)cn2)cc(-n2ncnc2C(F)F)c1)c1cnccn1` (stereo not shown) [Compound 76, 3-(5-Chloro-pyridin-2-yl)-5-(5-difluoromethyl-[1,2,4]triazol-1-yl)-N-(1-pyrazin-2-yl-ethyl)-benzamide]: the Ki is 741 nM on human P2X2/3 receptor and 10.2 nM at rat P2X3 receptor.
On to `COCC(C)NC(=O)c1cc(-c2ccc(C)cc2)cc(-n2cncn2)c1` (stereo not shown) [Compound 2, 4′-Methyl-5-[1,2,4]triazol-1-yl-biphenyl-3-carboxylic acid (2-methoxy-1-methyl-ethyl)-amide], for which the Ki at human P2X2/3 receptor was 10200 nM; on rat P2X3 receptor, 1450 nM.
In the case of `Cc1ccc(-c2cc(C(=O)NCc3ccn(C)c(=O)c3)cc(-n3ncnc3C(C)C)c2)nc1` [Compound 159, 3-(5-Isopropyl-[1,2,4]triazol-1-yl)-N-(1-methyl-2-oxo-1,2-dihydro-pyridin-4-ylmethyl)-5-(5-methyl-pyridin-2-yl)-benzamide], the Ki on human P2X2/3 receptor is 26.3 nM; at rat P2X3 receptor it was 2.95 nM.
For the compound `COC[C@@H](C)NC(=O)c1cc(-c2ccc(C)cc2)cc(-n2nc(C)nc2C(C)C)c1` [Compound 27, 5-(5-Isopropyl-3-methyl-[1,2,4]triazol-1-yl)-4′-methyl-biphenyl-3-carboxylic acid ((R)-2-methoxy-1-methyl-ethyl)-amide], the Ki on rat P2X3 receptor was 100 nM.
As for `Cc1ccc(-c2cc(C(=O)N[C@@H](C)CO)cc(-n3ncnc3C(F)(F)F)c2)cc1` [Compound 65, 4′-Methyl-5-(5-trifluoromethyl-[1,2,4]triazol-1-yl)-biphenyl-3-carboxylic acid ((S)-2-hydroxy-1-methyl-ethyl)-amide], the Ki on human P2X2/3 receptor is 2000 nM; at rat P2X3 receptor, 6.76 nM.
With `Cc1ccc(-c2cc(C(=O)NCc3cnc(C)cn3)cc(-n3ncnc3C(F)(F)F)c2)nc1` [Compound 99, N-(5-Methyl-pyrazin-2-ylmethyl)-3-(5-methyl-pyridin-2-yl)-5-(5-trifluoromethyl-[1,2,4]triazol-1-yl)-benzamide], the Ki on human P2X2/3 receptor was 36.3 nM; on rat P2X3 receptor, 3.24 nM.
For `Cc1ccc(-c2cc(-n3ncnc3C(F)(F)F)cc(C(=O)NC(C)c3cnccn3)c2F)nc1` (stereo not shown) [Compound 168, 2-Fluoro-3-(5-methyl-pyridin-2-yl)-N-(1-pyrazin-2-yl-ethyl)-5-(5-trifluoromethyl-[1,2,4]triazol-1-yl)-benzamide], the Ki at human P2X2/3 receptor is 2690 nM; on rat P2X3 receptor, 13.5 nM.
`Cc1ccc(-c2cc(C(=O)NCc3cnc(C)cn3)cc(-n3ncnc3C(C)(C)C)c2)nc1` [Compound 82, 3-(5-tert-Butyl-[1,2,4]triazol-1-yl)-N-(5-methyl-pyrazin-2-ylmethyl)-5-(5-methyl-pyridin-2-yl)-benzamide]: the Ki on human P2X2/3 receptor was 1350 nM; on rat P2X3 receptor, 6.03 nM.
For `COCc1ncnn1-c1cc(C(=O)N[C@@H](C)CO)cc(-c2ccc(C)cc2)c1` [Compound 45, 5-(5-Methoxymethyl-[1,2,4]triazol-1-yl)-4′-methyl-biphenyl-3-carboxylic acid ((S)-2-hydroxy-1-methyl-ethyl)-amide], the Ki is 3160 nM on human P2X2/3 receptor and 12.9 nM at rat P2X3 receptor.
Turning to `CC(C)Cc1ncnn1-c1cc(C(=O)N[C@@H](C)CO)cc(-c2ccc(Cl)cn2)c1` [Compound 90, 3-(5-Chloro-pyridin-2-yl)-N-((S)-2-hydroxy-1-methyl-ethyl)-5-(5-isobutyl-[1,2,4]triazol-1-yl)-benzamide], the Ki was 646 nM on human P2X2/3 receptor and 4.07 nM at rat P2X3 receptor.
Take `Cc1ccc(-c2cc(C(=O)NCc3cnc(C)cn3)cc(-n3ncnc3C3CNC3)c2)nc1` [Compound 151, 3-(5-Azetidin-3-yl-[1,2,4]triazol-1-yl)-N-(5-methyl-pyrazin-2-ylmethyl)-5-(5-methyl-pyridine-2-yl)-benzamide]: the Ki on human P2X2/3 receptor is 7240 nM; on rat P2X3 receptor it was 676 nM.
As for `CCn1cnnc1-c1cc(C(=O)N[C@@H](C)CO)cc(-c2ccc(C)cc2)c1` [Compound 42, 5-(4-Ethyl-4H-[1,2,4]triazol-3-yl)-4′-methyl-biphenyl-3-carboxylic acid ((S)-2-hydroxy-1-methyl-ethyl)-amide], the Ki at rat P2X3 receptor was 117 nM.
Regarding `COCCc1nc(C)nn1-c1cc(C(=O)NCc2cnc(C)cn2)cc(-c2ccc(C)cn2)c1` [Compound 154, 3-[5-(2-Methoxy-ethyl)-3-methyl-[1,2,4]triazol-1-yl]-N-(5-methyl-pyrazin-2-ylmethyl)-5-(5-methyl-pyridin-2-yl)-benzamide], on rat P2X3 receptor, the Ki is 151 nM.
As for `Cc1ccc(-c2cc(C(=O)N[C@@H](C)CO)cc(-n3ncnc3C(F)(F)F)c2F)nc1` [Compound 165, 4-Fluoro-N-((S)-2-hydroxy-1-methyl-ethyl)-3-(5-methyl-pyridin-2-yl)-5-(5-trifluoromethyl-[1,2,4]triazol-1-yl)-benzamide], the Ki at rat P2X3 receptor was 74.1 nM.
As to `Cc1ccc(-c2cc(C(=O)NC3CC3)cc(-n3ncnc3C)c2)nc1` [Compound 68, N-Cyclopropyl-3-(5-methyl-pyridin-2-yl)-5-(5-methyl-[1,2,4]triazol-1-yl)-benzamide], the Ki on rat P2X3 receptor was 170 nM.
In the case of `Cc1ccc(-c2cc(C(=O)N[C@@H](C)CO)cc(-n3ncnc3CC(F)F)c2)nc1` [Compound 146, 3-[5-(2,2-Difluoro-ethyl)-[1,2,4]triazol-1-yl]-N-((S)-2-hydroxy-1-methyl-ethyl)-5-(5-methyl-pyridin-2-yl)-benzamide], on rat P2X3 receptor, the Ki is 17.8 nM.
`COCC(C)NC(=O)c1cc(-c2ccc(C)cc2)cc(-n2ccnn2)c1` (stereo not shown) [Compound 1, 4′-Methyl-5-[1,2,3]triazol-1-yl-biphenyl-3-carboxylic acid (2-methoxy-1-methyl-ethyl)-amide]: on rat P2X3 receptor, the Ki was 1820 nM.
With `Cc1ccc(-c2cc(C(=O)NC(C)c3cnccn3)cc(-n3ncnc3C(F)(F)F)c2F)nc1` (stereo not shown) [Compound 170, 4-Fluoro-3-(5-methyl-pyridin-2-yl)-N-(1-pyrazin-2-yl-ethyl)-5-(5-trifluoromethyl-[1,2,4]triazol-1-yl)-benzamide], at rat P2X3 receptor, the Ki is 3.72 nM.
Consider `COCC(C)NC(=O)c1cc(-c2ccc(C)cc2)cc(-n2nccn2)c1` (stereo not shown) [Compound 3, 4′-Methyl-5-[1,2,3]triazol-2-yl-biphenyl-3-carboxylic acid (2-methoxy-1-methyl-ethyl)-amide], for which the Ki at rat P2X3 receptor was 2950 nM.

The values are drawn from patent US8440708B2, “Triazole-substituted arylamides as P2X3 and P2X2/3 antagonists” (Roche Palo Alto LLC, priority 2007, dated 2013).
